According to ChEMBL document CHEMBL1938271, “Dimeric ent-kaurane diterpenoids from Isodon excisus” (J Nat Prod, 2011):

Test system: RAW264.7
Assay: Antiinflammatory activity in mouse RAW264.7 cells assessed as inhibition of LPS-stimulated nitric oxide production
Assay type: functional, cell-based

IC50 [µM]	SMILES
> 50	CC(=O)O[C@H]1C[C@H]2C[C@@]3(C[C@H](O)[C@@H]4C(C)(C)[C@@H](OC(C)=O)C[C@H](O)[C@@]4(C)[C@H]13)C(=O)[C@]2(O)CC[C@@]1(O)C(=O)[C@]23C[C@@H]1C[C@H](O)[C@H]2[C@]1(C)[C@@H](OC(C)=O)C[C@H](OC(C)=O)C(C)(C)[C@H]1[C@@H](O)C3 (relative stereo)
> 50	CC(=O)O[C@H]1C[C@H]2C[C@@]3(C[C@H](O)[C@@H]4C(C)(C)[C@@H](OC(C)=O)C[C@H](O)[C@@]4(C)[C@H]13)C(=O)[C@]21CCC2=C(O1)[C@]13C[C@@H]2C[C@H](OC(C)=O)[C@H]1[C@@]1(C)[C@H]([C@@H](O)C3)C(C)(C)[C@@H](OC(C)=O)C[C@@H]1O (relative stereo)
> 50	CC(=O)O[C@H]1C[C@H]2C[C@@]3(C[C@H](O)[C@@H]4C(C)(C)[C@@H](OC(C)=O)C[C@H](O)[C@@]4(C)[C@H]13)C(=O)O[C@]1(CCC2=O)C(=O)[C@]23C[C@@H]1C[C@H](OC(C)=O)[C@H]2[C@@]1(C)[C@H]([C@@H](O)C3)C(C)(C)[C@@H](OC(C)=O)C[C@@H]1O (relative stereo)
> 50	CC(=O)O[C@H]1C[C@H]2C[C@@]3(CC(=O)[C@@H]4C(C)(C)[C@@H](OC(C)=O)C[C@H](O)[C@@]4(C)[C@H]13)C(=O)[C@]21CCC(=O)[C@H]2C[C@H](OC(C)=O)[C@@H]3[C@](C2)(C[C@H](O)[C@@H]2C(C)(C)[C@@H](OC(C)=O)C[C@H](O)[C@]23C)C(=O)O1 (relative stereo)
> 50	CC(=O)O[C@H]1C[C@H]2C[C@@]3(CC(=O)[C@@H]4C(C)(C)[C@@H](OC(C)=O)C[C@H](O)[C@@]4(C)[C@H]13)C(=O)O[C@]1(CCC2=O)C(=O)[C@]23C[C@@H]1C[C@H](OC(C)=O)[C@H]2[C@@]1(C)[C@H]([C@@H](O)C3)C(C)(C)[C@@H](OC(C)=O)C[C@@H]1O (relative stereo)

SMILES	IC50 [µM]
N=C(N)NN [PIMAGEDINE]	27.5
